# Assay results as given in US20140171320A1, “Composition Comprising A Pesticide And An Alkoxylate Of 2-Isopropyl-5-Methylhexane-1-Amine” (BASF SE, priority 2012, published 2014).
# Assays:
# maize (cultivar Amadeo) = assay: Greenhouse herbicidal activity of glyphosate SL formulation with amine alkoxylate adjuvant on maize; assay type: in vivo; conditions: after 21 days; 140 g glyphosate-IPA salt/ha and 300 g amine alkoxylate/ha, 375 l/ha water; score vs untreated plants
# Protocol: (§1) For the greenhouse tests, winter wheat (cultivar Cubus), soybean (cultivar Sultana), and maize (cultivar Amadeo) was sown or potted in loamy sandy soil to a depth of 1-2 cm. When the plants had reached a growth height of 10 to 25 cm (i.e., around 10 to 21 days after sowing), the spray mixtures were applied to the plants in a spraying cabin.
# (§2) A concentrated formulation comprising glyphosate isopropylammonium in solution in water and amine alkoxylate from Example 2 was diluted with deionized water and applied at a water application rate of 375 l/ha (140 g of glyphosate-IPA salt/ha and 300 g of amine alkoxylate/ha). The temperatures in the experimental period, which lasted for 3 weeks, were between 18-35° C. During this time, the experimental plants received optimum watering, with nutrients being supplied via the water used for watering.
# (§3) The herbicidal activity was evaluated by awarding scores to the treated plants in comparison to the untreated control plants (Table 2). The evaluation scale ranges from 0% to 100% activity. 100% activity means the complete death at least of those parts of the plant that are above ground. Conversely, 0% activity means that there were no differences between treated and untreated plants.
# [1] = system: Sorghum halepense (SORHA); assay: Greenhouse herbicidal activity of glyphosate SL formulation with amine alkoxylate adjuvant on Sorghum; assay type: in vivo; conditions: after 21 days; 140 g glyphosate-IPA salt/ha and 300 g amine alkoxylate/ha; score vs untreated plants
# Protocol: as §1, §2, §3
# (§4) The experiments were carried out as in Example 3, on Sorghum halepense (SORHA) and Setaria verticillata (SETVE). The application rate was 140 g of glyphosate-IPA salt/ha and 300 g of amine alkoxylate/ha.
# [2] = system: soybean (cultivar Sultana); assay: Greenhouse herbicidal activity of glyphosate SL formulation with amine alkoxylate adjuvant on soybean; assay type: in vivo; conditions: after 21 days; 140 g glyphosate-IPA salt/ha and 300 g amine alkoxylate/ha, 375 l/ha water; score vs untreated plants
# Protocol: as §1, §2, §3
# [3] = system: winter wheat (cultivar Cubus); assay: Greenhouse herbicidal activity of glyphosate SL formulation with amine alkoxylate adjuvant on winter wheat; assay type: in vivo; conditions: after 21 days; 140 g glyphosate-IPA salt/ha and 300 g amine alkoxylate/ha, 375 l/ha water; score vs untreated plants
# Protocol: as §1, §2, §3
# [4] = system: Setaria verticillata (SETVE); assay: Greenhouse herbicidal activity of glyphosate SL formulation with amine alkoxylate adjuvant on Setaria; assay type: in vivo; conditions: after 21 days; 140 g glyphosate-IPA salt/ha and 300 g amine alkoxylate/ha; score vs untreated plants
# Protocol: as §1, §2, §3, §4
# [5] = Storage stability of aqueous glyphosate formulation; assay type: physicochemical; conditions: 41.5% by weight glyphosate-isopropylammonium salt and 15.5% by weight amine alkoxylate, −5 to +55° C.
Molecule,Activity [%] Maize (maize (cultivar Amadeo)) [%],Activity [%] SORHA [1] [%],Activity [%] Soybean [2] [%],Activity [%] Winter wheat [3] [%],Activity [%] SETARIA [4] [%],Storage stability [5]
2-propylheptylamine-10 EO,80,97,42,55,88,–
"CC(C)N.O=C(O)CNCP(=O)(O)O [—, glyphosate isopropylammonium]",32,33,20,18,58,–
2-Isopropyl-5-methylhexane-1-amine-10 EO,80,93,48,62,78,storage stable for at least two weeks
